Reference: patent US7557099B2, “Pyrrolobenzodiazepines as key intermediates in the synthesis of dimeric cytotoxic pyrrolobenzodiazepines” (Spirogen Limited, priority 2004, dated 2009)
Read-outs that look alike come from different tables or passages of the source.

How the values were obtained:
[1] = system: approximately 60 human tumour cell lines; assay: NCI 60 cell screen, SRB assay; type: cell-based; conditions: Homo sapiens, 48 hour continuous exposure
Experimental: The National Cancer Institute (NCI), Bethesda, Md., USA has available an in vitro cytotoxicity screen which consists of approximately 60 human tumour cell lines against which compounds are tested at a minimum of five concentrations each differing 10-fold. A 48 hour continuous exposure protocol is used, where cell viability or growth is estimated with an SRB protein assay.
The test compounds were evaluated against approximately 60 human tumour cell lines. The NCI screening procedures were described in detail by Monks and co-workers (Monks, A et al., Journal of the National Cancer Institute, 1991, 83, 757). Briefly, cell suspensions were diluted according to the particular cell type and the expected target cell density (5000-40,000 cells per well based on cell growth characteristics), and added by pipette (100 μL) into 96-well microtitre plates. The cells were allowed a preincubation period of 24 hours at 37° C. for stabilisation. Dilutions at twice the intended test concentration were added at time zero in 100 μL aliquots to the wells. The test compounds were evaluated at five 10-fold dilutions (10^−4, 10^−5, 10^−6, 10^−7 and 10^−[…]). The test compounds were incubated for 48 hours in 5% CO2 atmosphere and 100% humidity. The cells were then assayed using the sulphorhodamine B assay. A plate reader was used to read the optical densities and a microcomputer processed the readings into GI50 values (in Moles), which is the dosage required to limit cell growth to 50%.

[2] = system: K562 human chronic myeloid leukaemia cells; assay: In vitro cytotoxicity, K562 cells, MTT assay; type: cell-based; conditions: Homo sapiens
Experimental: K562 human chronic myeloid leukaemia cells were maintained in RPM1 1640 medium supplemented with 10% fetal calf serum and 2 mM glutamine at 37° C. in a humidified atmosphere containing 5% CO2 and were incubated with a specified dose of drug for 1 hour or 96 hours at 37° C. in the dark. The incubation was terminated by centrifugation (5 min, 300 g) and the cells were washed once with drug-free medium. Following the appropriate drug treatment, the cells were transferred to 96-well microtiter plates (10^4 cells per well, 8 wells per sample). Plates were then kept in the dark at 37° C. in a humidified atmosphere containing 5% CO2. The assay is based on the ability of viable cells to reduce a yellow soluble tetrazolium salt, 3-(4,5-dimethylthiazol-2-yl)-2,5-diphenyl-2H-tetrazolium bromide (MTT, Aldrich-Sigma), to an insoluble purple formazan precipitate. Following incubation of the plates for 4 days (to allow control cells to increase in number by approximately 10 fold), 20 μL of MTT solution (5 mg/mL in phosphate-buffered saline) was added to each well and the plates further incubated for 5 hours. The plates were then centrifuged for 5 minutes at 300 g and the bulk of the medium pipetted from the cell pellet leaving 10-20 μL per well. DMSO (200 μL) was added to each well and the samples agitated to ensure complete mixing. The optical density was then read at a wavelength of 550 nm on a Titertek Multiscan ELISA plate reader, and a dose-response curve was constructed. For each curve, an IC50 value was read as the dose required to reduce the final optical density to 50% of the control value.

linear pBR322 DNA = assay: DNA cross-linking, electrophoretic assay (XL50); type: biochemical; conditions: concentration giving 50% cross-linked plasmid DNA; 2 hours, 37° C., pH 7.2
Experimental: The extent of DNA cross-linking induced by each PBD dimer was determined using the electrophoretic assay method of Hartley, et al. (Hartley, J. A., Berardini, M. D., and Souhami, R. L. (1991) Anal. Biochem. 193, 131-134) based on the principle that, following complete denaturation of linear pBR322 DNA (˜4,300 bp) to the single-stranded (SS) form, an interstrand cross-link results in renaturation to double-stranded (DS) in a neutral gel.
Closed-circular DNA was linearized with HindIII, then dephosphorylated and finally 5′-singly end-labelled using [γ^32P]-ATP and polynucleotide kinase. Reactions containing 30-40 ng of DNA and the test compound were carried out in aqueous TEOA (25 mM triethanolamine, 1 mM EDTA, pH 7.2) buffer at 37° C. in a final volume of 50 μl for 2 hours. Reactions were terminated by addition of an equal volume of stop solution (0.6 M NaOAc, 20 mM EDTA, 100 μg/ml tRNA) followed by precipitation with ethanol. Following centrifugation, the supernatant was discarded and the pellet dried by lyophilization. Samples were re-suspended in 10 μl of strand separation buffer (30% DMSO, 1 mM EDTA, 0.04% bromophenol blue and 0.04% xylene cylanol) and denatured by heating to 90° C. for 2.5 min, followed by immersion in an ice/water bath. Control non-denatured samples were re-suspended in 10 μl of non-denaturing buffer solution (0.6% sucrose, 0.04% bromophenol blue in aqueous TAE buffer [40 mM Tris, 20 mM acetic acid, 2 mM EDTA, pH 8.1]) and loaded directly onto the gel for comparison.
Electrophoresis was carried out for 14-16 h at 40 V using a 0.8% submerged agarose gel (20×25×0.5 cm) in TAE buffer. Gels were dried under vacuum for 2 hour at 80° C. onto one layer each of Whatman 3MM and DE8I filter papers using a BioRad 583 gel dryer. Autoradiographs were obtained after exposure of Hyperfilm-MP film (Amersham plc, U.K.) to the dried gel for either 4 hour with a screen (or over night, without a screen, to obtain a sharper image). Film bands were quantitated using a BioRad GS-670 imaging laser densitometer. Percentage cross-linking was calculated by measuring the total DNA in each lane (summed density for the double-stranded [DS] and single-stranded [SS] bands) relative to the amount of cross-linked DNA (density of DS band alone). A dose-response curve was derived by plotting drug concentration against the determined percentage level of cross-linked DNA which was then analysed to determine the concentration of test compound that results in 50% cross-linked plasmid DNA (XL50).

[3] = 1 hr exposure, read-out: IC50 1 hr exposure

Row | Structure (SMILES) | GI50 [1] [nM] | IC50 ([2]; 96 hr exposure, sub-table of 16e-j, read-out: IC50 96 hr exposure) [nM] | EC50 (linear pBR322 DNA) [nM] | IC50 [2, 3] [nM] | GI50 ([1]; sub-table of 29a-c) [nM] | IC50 ([2]; 96 hr exposure, sub-table of 29a-c, read-out: IC50 96 hr exposure) [nM]
1 | COc1ccc2c(c1)C(=O)N1CCC(OCCCCCCCCCCOC3CCN4C(=O)c5cc(OC)ccc5N=C[C@@H]34)[C@@H]1C=N2 (stereo partly drawn) [Compound 16h, 1,1′-[(Decane-1,10-diyl)dioxy]bis[(11aS)-7-methoxy-1,2,3,11a-tetrahydro-5H-pyrrolo[2,1-c][1,4]benzodiazepine-5-one]] | 54 | 352 | 5000 | – | – | –
2 | COc1ccc2c(c1)N=C[C@H]1C(OCCCCCCCCCCOC3CCN4C(=O)c5ccc(OC)cc5N=C[C@@H]34)CCN1C2=O (stereo partly drawn) [Compound 9h, 1,1′-[(Decane-1,10-diyl)dioxy]bis[(11aS)-8-methoxy-1,2,3,11a-tetrahydro-5H-pyrrolo[2,1-c][1,4]benzodiazepine-5-one]] | 1120 | – | 170 | 16100 | – | –
3 | COc1ccc2c(c1)N=C[C@H]1C(OCCCCCCCCOC3CCN4C(=O)c5ccc(OC)cc5N=C[C@@H]34)CCN1C2=O (stereo partly drawn) [Compound 9f, 1,1′-[(Octane-1,8-diyl)dioxy]bis[(11aS)-8-methoxy-1,2,3,11a-tetrahydro-5H-pyrrolo[2,1-c][1,4]benzodiazepine-5-one]] | 1170 | – | 1800 | 9720 | – | –
4 | COc1ccc2c(c1)C(=O)N1CCC(OCCCOC3CCN4C(=O)c5cc(OC)ccc5N=C[C@@H]34)[C@@H]1C=N2 (stereo partly drawn) [Compound 16a, 1,1′-[(Propane-1,3-diyl)dioxy]bis[(11aS)-7-methoxy-1,2,3,11a-tetrahydro-5H-pyrrolo[2,1-c][1,4]benzodiazepine-5-one]] | 3160 | – | 50 | 12800 | – | –
5 | COc1ccc2c(c1)N=C[C@H]1C(OCCCCCCCCCOC3CCN4C(=O)c5ccc(OC)cc5N=C[C@@H]34)CCN1C2=O (stereo partly drawn) [Compound 9g, 1,1′-[(Nonane-1,9-diyl)dioxy]bis[(11aS)-8-methoxy-1,2,3,11a-tetrahydro-5H-pyrrolo[2,1-c][1,4]benzodiazepine-5-one]] | 570 | – | 980 | 17300 | – | –
6 | C=C1CN2C(=O)c3cc(OC)ccc3N=C[C@H]2C1OCCCCCCCCCCOC1C(=C)CN2C(=O)c3cc(OC)ccc3N=C[C@@H]12 (stereo partly drawn) [Compound 29c, 1,1′-[(Decane-1,10-diyl)dioxy]bis[(11aS)-7-methoxy-2-methylene-1,2,3,11a-tetrahydro-5H-pyrrolo[2,1-c][1,4]benzodiazepine-5-one]] | – | – | 3900 | – | 13.2 | 100
